The record followed here is patent US12077503B2, “Substituted cyclic amides and their use as herbicides” (FMC CORPORATION, priority 2015, dated 2024).

Common to all, as to format: in vivo
Experiment [1] deals with ryegrass, Italian (Italian ryegrass, Lolium multiflorum). Description: Test A preemergence. The note with it: Lolium multiflorum, pre-emergence, 240 h, preemergence, read-out: Plant response rating, Ryegrass, Italian; for pest or weed control at 125 g/ha: 125 g ai/ha, visual rating after approx. 10 d, 0 to 100 scale where 0 is no effect and 100 is complete control. The method in brief:
(§1)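 Greenhouse, ~10 d after spray; visual injury vs untreated controls, 0 = no effect, 100 = complete control. Preemergence: directed soil spray over planted seeds. Postemergence: plants 2–10 cm, 1–2 leaf stage. Loam/sand blend. Compound in non-phytotoxic solvent with surfactant.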

Experiment [2] deals with barnyardgrass (Echinochloa crus-galli). Description: Test A preemergence. To be noted: Echinochloa crus-galli, pre-emergence, 240 h, preemergence, read-out: Plant response rating, Barnyardgrass; for pest or weed control at 125 g/ha: 125 g ai/ha, visual rating after approx. 10 d, 0 to 100 scale where 0 is no effect and 100 is complete control; for pest or weed control at 500 g/ha: 500 g ai/ha, 0 to 100 scale, 0 = no effect, 100 = complete control. In a few lines: as §1

Experiment [3] deals with ragweed (common ragweed, Ambrosia elatior). Description: Test A preemergence. The note with it: Ambrosia artemisiifolia, pre-emergence, 240 h, preemergence, read-out: Plant response rating, Ragweed; for pest or weed control at 125 g/ha: 125 g ai/ha, visual rating after approx. 10 d, 0 to 100 scale where 0 is no effect and 100 is complete control; for pest or weed control at 500 g/ha: 500 g ai/ha, 0 to 100 scale, 0 = no effect, 100 = complete control. The method in brief: as §1

Experiment [4] deals with Kochia (Kochia scoparia). Description: Test A preemergence. To be noted: Bassia scoparia, pre-emergence, 240 h, preemergence, read-out: Plant response rating, Kochia; for pest or weed control at 125 g/ha: 125 g ai/ha, visual rating after approx. 10 d, 0 to 100 scale where 0 is no effect and 100 is complete control; for pest or weed control at 500 g/ha: 500 g ai/ha, 0 to 100 scale, 0 = no effect, 100 = complete control. The method in brief: as §1

Experiment [5] deals with pigweed (Amaranthus retroflexus). Description: Test A preemergence. The note with it: Amaranthus retroflexus, pre-emergence, 240 h, preemergence, read-out: Plant response rating, Pigweed; for pest or weed control at 125 g/ha: 125 g ai/ha, visual rating after approx. 10 d, 0 to 100 scale where 0 is no effect and 100 is complete control; for pest or weed control at 500 g/ha: 500 g ai/ha, 0 to 100 scale, 0 = no effect, 100 = complete control.

In experiment [6] the test system is giant foxtail (Setaria faberii). Description: Test A preemergence. The note with it: Setaria faberi, pre-emergence, 240 h, preemergence, read-out: Plant response rating, Foxtail, Giant; for pest or weed control at 125 g/ha: 125 g ai/ha, visual rating after approx. 10 d, 0 to 100 scale where 0 is no effect and 100 is complete control; for pest or weed control at 500 g/ha: 500 g ai/ha, 0 to 100 scale, 0 = no effect, 100 = complete control. The method in brief:
as §1

The test system of experiment [7] is ryegrass, Italian (Italian ryegrass, Lolium multiflorum). Description: Test A postemergence. The note with it: Lolium multiflorum, post-emergence, 240 h, 125 g ai/ha, postemergence; visual injury after approximately 10 d; 0 to 100 scale (0 no effect, 100 complete control); read-out: Plant response rating, Ryegrass, Italian. The method in brief: as §1
Experiment [8] concerns Galium (catchweed bedstraw, Galium aparine). Put plainly: Test A postemergence. To be noted: Galium, post-emergence, 240 h, 125 g ai/ha, postemergence; visual injury after approximately 10 d; 0 to 100 scale (0 no effect, 100 complete control); read-out: Plant response rating, Galium. In a few lines:
as §1

Experiment [9] has as its system barnyardgrass (Echinochloa crus-galli). Description: Test A postemergence. To be noted: Echinochloa crus-galli, post-emergence, 240 h, 125 g ai/ha, postemergence; visual injury after approximately 10 d; 0 to 100 scale (0 no effect, 100 complete control); read-out: Plant response rating, Barnyardgrass. The method in brief:
as §1

For experiment [10], the system named is ragweed (common ragweed, Ambrosia elatior). Description: Test A postemergence. To be noted: Ambrosia artemisiifolia, post-emergence, 240 h, 125 g ai/ha, postemergence; visual injury after approximately 10 d; 0 to 100 scale (0 no effect, 100 complete control); read-out: Plant response rating, Ragweed. The method in brief:
as §1

The subject of experiment [11] is Kochia (Kochia scoparia). Description: Test A postemergence. To be noted: Bassia scoparia, post-emergence, 240 h, 125 g ai/ha, postemergence; visual injury after approximately 10 d; 0 to 100 scale (0 no effect, 100 complete control); read-out: Plant response rating, Kochia. The method in brief: as §1
The subject of experiment [12] is pigweed (Amaranthus retroflexus). Description: Test A postemergence. To be noted: Amaranthus retroflexus, post-emergence, 240 h, 125 g ai/ha, postemergence; visual injury after approximately 10 d; 0 to 100 scale (0 no effect, 100 complete control); read-out: Plant response rating, Pigweed. The method in brief: as §1
The test system of experiment [13] is wheat (Triticum aestivum). Put plainly: Test A postemergence. To be noted: Triticum aestivum, post-emergence, 240 h, 125 g ai/ha, postemergence; visual injury after approximately 10 d; 0 to 100 scale (0 no effect, 100 complete control); read-out: Plant response rating, Wheat. In a few lines:
as §1

The subject of experiment [14] is blackgrass (Alopecurus myosuroides). Description: Test A postemergence. The note with it: Alopecurus myosuroides, post-emergence, 240 h, 125 g ai/ha, postemergence; visual injury after approximately 10 d; 0 to 100 scale (0 no effect, 100 complete control); read-out: Plant response rating, Blackgrass. In a few lines:
as §1

Experiment [15] relates to giant foxtail (Setaria faberii). Put plainly: Test A postemergence. To be noted: Setaria faberi, post-emergence, 240 h, 125 g ai/ha, postemergence; visual injury after approximately 10 d; 0 to 100 scale (0 no effect, 100 complete control); read-out: Plant response rating, Foxtail, Giant. The method in brief:
as §1

The next experiment deals with corn (Zea mays). Put plainly: Test A postemergence. The note with it: Zea mays, post-emergence, 240 h, 125 g ai/ha, postemergence; visual injury after approximately 10 d; 0 to 100 scale (0 no effect, 100 complete control). The method in brief:
as §1

As for `CCc1ccc([C@H]2CNC(=S)[C@@H]2C(=O)Nc2cccc(F)c2F)cc1` [Compound 762], the pest or weed control at 125 g/ha in [1] is 20%; in [2], 100%; in experiment [3], 0%; with Kochia (Kochia scoparia) [4], 0%; in [5], 0%; in experiment [6], 70%. For the same compound, the pest or weed control at 125 g/ha in experiment [7] worked out at 0%; in [8] it was 0%; in experiment [9] it was 90%; in [10], 0%; with Kochia (Kochia scoparia) [11], 0%; in experiment [12], 0%. The pest or weed control at 125 g/ha stood at 0% in [14] and 20% in experiment [15]. Besides, the pest or weed control at 500 g/ha in [2] worked out at 100%; in experiment [3], 50%; with Kochia (Kochia scoparia) [4], 50%; in experiment [5], 0%; in experiment [6], 100%. For the same compound, the plant injury at 125 g/ha in experiment [13] turned out to be 0%. In addition, the Corn plant response rating (crop injury, 0 = no effect, 100 = complete kill) at 125 g/ha in the experiment on corn (Zea mays) is 0%.
For `CN1C[C@H](c2cc(F)cc(F)c2)[C@@H](C(=O)Nc2c(F)cccc2F)C1=O` [Compound 759], the pest or weed control at 125 g/ha turned out to be 0% in experiment [1]; 90% in [2]; 0% in [3]; 0% in the experiment with Kochia (Kochia scoparia) [4]; 0% in experiment [5]; 70% in experiment [6]. The pest or weed control at 125 g/ha in experiment [7] was determined as 0%; in experiment [8], 0%; in experiment [9], 70%; in [10], 0%; with Kochia (Kochia scoparia) [11] it was 0%; in experiment [12], 0%. Besides, the pest or weed control at 125 g/ha in experiment [14] worked out at 0%; in [15], 20%. Further, the pest or weed control at 500 g/ha worked out at 100% in [2]; 0% in experiment [3]; 20% with Kochia (Kochia scoparia) [4]; 0% in experiment [5]; 100% in experiment [6]. The plant injury at 125 g/ha in [13] came out at 0%. In the experiment on corn (Zea mays), this compound returned a Corn plant response rating (crop injury, 0 = no effect, 100 = complete kill) at 125 g/ha of 0%.
Take `O=C1NC[C@H](c2cc(F)c(F)c(F)c2)[C@H]1C(=O)Nc1ccc(F)c(F)c1F` [Compound 756]: the pest or weed control at 125 g/ha in experiment [1] was determined as 30%; in [2], 100%; in experiment [3] it was 0%; in the experiment on Kochia (Kochia scoparia) [4] it was 70%; in [5] it was 40%; in experiment [6], 100%. The pest or weed control at 125 g/ha in experiment [7] came to 40%; in [8] it was 50%; in experiment [9] it was 90%; in experiment [10], 20%; with Kochia (Kochia scoparia) [11], 20%; in experiment [12] it was 0%. Further, the pest or weed control at 125 g/ha in [14] was found to be 0%; in experiment [15] it was 80%. The pest or weed control at 500 g/ha in experiment [1] (500 g ai/ha, 0 to 100 scale, 0 = no effect, 100 = complete control) came out at 70%; in experiment [2] it was 100%; in [3], 30%; in the experiment with Kochia (Kochia scoparia) [4], 70%; in experiment [5], 70%; in [6], 100%. The plant injury at 125 g/ha in experiment [13] is 30%. Also, in the experiment on corn (Zea mays), the Corn plant response rating (crop injury, 0 = no effect, 100 = complete kill) at 125 g/ha was found to be 50%.
